Laboratory results reported in patent US7754480B2, “Method of isolating stem cells” (Duke University, priority 1998, dated 2010).
Blank lines part the entries; values can stand above or below the compound they belong to.

Columns and labels:
L1210 cells = test: BAAA staining of parental ALDH- L1210 cells, flow cytometry; assay type: cell-based, murine; details: cyclophosphamide-sensitive parental L1210
From the text: (§1) FIGS. 1A-1D. BAAA staining identifies cells with high levels of ALDH activity. L1210/cpa is a derivative of the L1210 leukemic cell line that overexpresses ALDH. (FIGS. 1A and 1B represent L1210 cells, plus DEAB and minus DEAB, respectively; FIGS. 1C and 1D represent L1210/cpa cells, plus and minus DEAB, respectively).
(§2) K562, L1210 and L1210/cpa cells (ATCC) were maintained in suspension in RPMI 1640 media supplemented with 10% Fetal Calf Serum (FCS) and 5×10^−5 M β-mercaptoethanol.
(§3) To assay whether BAAA would permit the specific selection of ALDH^+ cells, studies initially determined an optimal response dose for the BAAA reagent in a murine cell line previously selected for cylophoshamide-resistance, L1210/cpa, that is known to be ALDH^+ (FIG. 1). The parental cell line, L1210 (FIGS. 1A and 1B) is cylophosphamide-sensitive and ALDH^−. […] In these studies, the BAAA could be used at a final concentration as low as 5 μM. This molar concentration is 10-fold lower than that used with the dansylated reagent.

[1] = test system: human ALDH1 in K562 cells; test: BAAA staining of K562 cells expressing ALDH1; assay type: cell-based
Method: as §2
Multiple different ALDH isoenzymes exist and these may display different abilities to convert BAAA. […] Therefore, a human cell line known to express ALDH1, K562, was assayed with this novel reagent.

[2] = Solubility and membrane permeability of the aldehyde reagent (BAAA); assay type: physicochemical
Method: Due to the inherent instability of aldehydes in aqueous solution, the reagent is prepared and stored as an acetal. […] Intracellular fluorescence can be used to select cells.

ALDH in L1210/cpa cells = test: BAAA staining of cyclophosphamide-resistant ALDH+ L1210/cpa cells, flow cytometry; assay type: cell-based, murine
From the text: as §1, §2, §3

ALDH in UCB cells = test: BAAA staining of mononuclear umbilical cord blood (UCB) cells, flow cytometry; assay type: cell-based, human
Method: Human umbilical cord blood (UCB), intended for disposal, was collected into sterile bottles containing anticoagulant citrate buffer. The UCB used in these studies were processed within 24 hours of being harvested. White cells were enriched through a preliminary red cell agglutination where the UCB was diluted 1:2 with Dulbecco's phosphate buffered saline (PBS) at room temperature. These cells were then brought to a final concentration of 1% Hespan (DuPont Pharma, Wilmington, Del.) and were left to stand undisturbed for 1 hour. Non-agglutinated white blood cells were harvested and residual red cells were hemolysed at 37° C. in 0.17 M NH4Cl containing 10 mM Tris-HCl, pH 7.2 and […] EDTA. The recovered cells were washed in IMDM containing 2% FCS and mononuclear cells are then purified using Ficoll-Hypaque (1.077 g/ml). When held overnight, the cells were kept on ice in a 4° C. refrigerated room in IMDM with 20% FCS.
Mononuclear UCB cells were resuspended at 10^6 cells/ml in IMDM containing 2% FCS and were labeled with 1 μM BAAA for 30 min. When used, verapamil was included at […]. After staining, the cells were washed with ice cold staining media and maintained on ice until their analysis and sorting. The cells were then resuspended in staining media with […] 7-aminoactinomycin D (7AAD) (Molecular Probes; Eugene, OR). For antibody staining to permit multiparameter analyses, the cells were resuspended in staining media (100 μl) and antibodies were added directly to the cell suspensions. The cells were incubated on ice for 20 min. and then washed again in ice cold staining media. The cells were then analyzed or sorted on a FAC Star Plus cell sorter (BDIS) equipped with dual Coherent I -90 argon-dye laser. The BAAA was excited at 488 nm and emissions were detected using 515 DF20filter in FL1. Dead and dying cells were excluded on the basis of their high emission in the far red wavelength due to their uptake of 7AAD.
Umbilical Cord Blood (UCB) was chosen for its increasing promise as a source for transplantable hematopoietic stem cells. […]

[3] = test system: MDR efflux pump in UCB cells; test: Efflux of converted BAAA from UCB cells with or without verapamil; details: product of the ALDH conversion of BAAA
Method: When used, verapamil was included at 50 mM. After staining, the cells were washed with ice cold staining media and maintained on ice until their analysis and sorting. The cells were then resuspended in staining media with 10 mg/ml 7-aminoactinomycin D (7AAD) (Molecular Probes; Eugene, OR). For antibody staining to permit multiparameter analyses, the cells were resuspended in staining media (100 μl) and antibodies were added directly to the cell suspensions. The cells were incubated on ice for 20 min. and then washed again in ice cold staining media. The cells were then analyzed or sorted on a FAC Star Plus cell sorter (BDIS) equipped with dual Coherent I -90 argon-dye laser. […] Dead and dying cells were excluded on the basis of their high emission in the far red wavelength due to their uptake of 7AAD.
Since this reagent had never been previously characterized, the susceptibility of converted BAAA to MDR efflux was assayed. Although BODIPY aminoacetaldehyde passes through the cell membrane without active transport, the product of the ALDH conversion (BODIPY aminoacetate) might well be a substrate for the MDR pump.

[4] = Stability of BODIPY aminoacetaldehyde diethyl acetal on storage and in 1 N HCl; assay type: physicochemical
Method: The aldehyde dehydrogenase substrate is prepared as BODIPY aminoacetaldehyde diethyl acetal and lyophilized in 0.5 micromole aliquots. […] The acetal is then solubilized in DMSO to a final concentration of 5 mM. […] To convert the acetal to an acetaldehyde, aliquots of this solution are brought to a final concentration of 1 N HCl. […] After 2 hours in 1 N HCl, the vast majority of the BODIPY aminoacetaldehyde diethyl acetal has converted to BODIPY aminoacetaldehyde (BAAA), and is then diluted to […] in Dulbecco's phosphate buffered saline (PBS). This stock is added directly to cells prepared in Iscove's Modified Dulbecco's Medium (IMDM) with 2% FCS at concentrations ranging from 1 to 5 μM.)(See also FIG. 6.).

[5] = test system: human hematopoietic cells; test: Preliminary DAAA staining of human hematopoietic cells, flow cytometry; assay type: cell-based; details: signal intensity too high in flow cytometry
From the text: Preliminary studies using DAAA indicate that this reagent is unusable on preparations of human hematopoietic cells because the signal intensity of the reagent is too high to resolve discrete cell populations by flow cytometry. The present invention provides a fluorescent ALDH substrate that is free of the problems associated with DAAA and that can be used in the purification of primitive human hematopoietic cells.

solubility in PBS [2]: freely soluble
SMILES: Cc1cc(C)n2c1C=C1C=CC(CCC(=O)NCC=O)=[N+]1[B-]2(F)F [BAAA, BODIPY aminoacetaldehyde]
fluorescent response to BAAA (L1210 cells): essentially no response | conversion of BAAA / ALDH positivity [1]: positive for ALDH | molar concentration relative to the dansylated reagent (fold lower) (ALDH in L1210/cpa cells; 5 μM BAAA vs dansylated reagent): 10 fold | detection of ALDH+ cells (ALDH in L1210/cpa cells; L1210/cpa): able to detect ALDH^+ cells | lowest usable final concentration (ALDH in L1210/cpa cells; continuous cell lines): 5 µM | molar concentration relative to dansyl aminoacetaldehyde (fold lower) (ALDH in UCB cells; 1 μM BAAA vs concentration of DAAA used for murine PHSC): 50 fold | optimal concentration for resolving ALDH^br subpopulations (ALDH in UCB cells; UCB cells 10^6 cells/ml, IMDM 2% FCS): 1 µM

SMILES: CC1=CC(C)=[N+]2C1=Cc1ccc(CCC(=O)NCC(=O)O)n1[B-]2(F)F [BODIPY Aminoacetate, BODIPY aminoacetate]
substrate status for the MDR efflux pump [3]: Substrate for the MDR Efflux Pump

stability of solution in DMSO ([4]; 5 mM in DMSO at 4° C.): up to 1 week | half life of the acetal ([4]; 1 N HCl, conversion to the acetaldehyde): 15 min | stability of lyophilized aliquots ([4]; lyophilized 0.5 micromole aliquots stored at -20° C.): stable indefinitely
SMILES: CCOC(CNC(=O)CCC1=[N+]2C(=Cc3c(C)cc(C)n3[B-]2(F)F)C=C1)OCC [BODIPY aminoacetaldehyde diethyl acetal]

SMILES: CN(C)c1cccc2c(S(=O)(=O)NCC=O)cccc12 [DAAA, dansyl aminoacetaldyde]
usability for resolving discrete cell populations [5]: unusable

SMILES: CCN(CC)c1ccc(C=O)cc1 [DEAB, diethylbenzaldehyde, reference compound]
inhibition of the BAAA response [1]: entirely inhibited | block of the BAAA fluorescent response (ALDH in L1210/cpa cells; 10-fold molar excess of DEAB, L1210/cpa): totally blocked | inhibition of the BAAA response (ALDH in UCB cells; excess DEAB, UCB cells): inhibited
